Results reported in patent US20140073637A1, “AMINO-SUBSTITUTED-ALKYLOXY-BENZO[E]PYRIDO[4,3-B]INDOLE DERIVATIVES AS NEW POTENT KINASE INHIBITORS” (INSTITUT CURIE, priority 2011, published 2014).

Tests used:
[1] = target: RSK2 (Homo sapiens, UniProt P51812); test: In vitro assay against recombinant kinases (FIG. 2); type: biochemical
Description: (§1) Assays were run in vitro against recombinant kinases. The activity is reported for each kinase, grey histograms for CH21, white for C14 and gradation grey for C1. […] Therefore, C1 and C14 affect differently the Aurora kinase family.
(§2) The profiling was performed at the MRC (Dundee University), in duplicate, on a set of 121 kinases. The panel is representative of the major different classes of kinases. Compounds were used at the concentration of 1 μM. In vitro, IC50 were determined on recombinant kinases by Reaction biology Corp (USA).

[2] = target: RSK1 (Homo sapiens, UniProt Q15418); test: as above; type: biochemical
Sequence of RSK1 (Q15418 whole entry, species assumed): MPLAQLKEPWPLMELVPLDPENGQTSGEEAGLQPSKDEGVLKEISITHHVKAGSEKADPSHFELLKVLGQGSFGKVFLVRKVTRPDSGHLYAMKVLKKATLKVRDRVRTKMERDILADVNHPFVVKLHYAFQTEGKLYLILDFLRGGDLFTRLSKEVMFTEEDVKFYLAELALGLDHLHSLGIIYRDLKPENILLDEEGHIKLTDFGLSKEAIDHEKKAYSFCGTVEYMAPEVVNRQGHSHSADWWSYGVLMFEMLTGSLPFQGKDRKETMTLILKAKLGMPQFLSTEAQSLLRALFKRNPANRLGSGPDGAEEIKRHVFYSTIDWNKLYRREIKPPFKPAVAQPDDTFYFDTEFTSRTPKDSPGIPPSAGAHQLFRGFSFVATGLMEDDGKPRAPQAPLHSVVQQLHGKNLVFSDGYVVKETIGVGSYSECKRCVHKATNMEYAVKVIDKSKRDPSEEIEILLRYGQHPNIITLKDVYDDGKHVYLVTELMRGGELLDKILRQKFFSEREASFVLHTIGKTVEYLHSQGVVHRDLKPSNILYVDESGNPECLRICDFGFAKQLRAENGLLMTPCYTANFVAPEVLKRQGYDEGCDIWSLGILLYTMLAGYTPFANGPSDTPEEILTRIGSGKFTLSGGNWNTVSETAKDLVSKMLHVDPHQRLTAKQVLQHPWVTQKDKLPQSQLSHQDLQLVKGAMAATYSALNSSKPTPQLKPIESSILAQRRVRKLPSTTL
Description: as §1, §2

[3] = target: Src (Homo sapiens, UniProt P12931); test: as above; type: biochemical
Sequence of Src (P12931 whole entry, species assumed): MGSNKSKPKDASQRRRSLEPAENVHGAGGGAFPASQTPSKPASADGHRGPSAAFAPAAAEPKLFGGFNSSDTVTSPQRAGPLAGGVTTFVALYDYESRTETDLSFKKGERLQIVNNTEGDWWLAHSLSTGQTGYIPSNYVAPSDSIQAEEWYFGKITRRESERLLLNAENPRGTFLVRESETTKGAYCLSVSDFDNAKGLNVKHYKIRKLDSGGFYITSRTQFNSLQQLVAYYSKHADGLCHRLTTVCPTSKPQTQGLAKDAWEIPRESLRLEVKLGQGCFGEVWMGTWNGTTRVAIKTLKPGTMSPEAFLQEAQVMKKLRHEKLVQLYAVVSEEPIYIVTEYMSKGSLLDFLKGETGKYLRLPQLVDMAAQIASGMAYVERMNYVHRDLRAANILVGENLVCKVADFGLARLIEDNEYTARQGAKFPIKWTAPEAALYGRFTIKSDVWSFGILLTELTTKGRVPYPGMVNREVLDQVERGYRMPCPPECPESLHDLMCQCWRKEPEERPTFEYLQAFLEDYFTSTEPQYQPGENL
Description: as §1, §2

[4] = target: Aurora B (Homo sapiens, UniProt Q96GD4); test: Aurora B inhibition in cells: Histone H3 Ser10 phosphorylation by western blotting and immunofluorescence; type: cell-based; parameters: endogenous in cells; host or cells: U2OS (human osteosarcoma); HeLa also used for the maleate salts; key to Aurora B inhibition: +++: very efficient inhibition; −: no inhibition; settings: for Aurora B inhibition in cellulo (Histone H3 phosphorylation, in words): U2OS mitotic extracts, 1 μM overnight, western blotting (FIG. 3); for Aurora B inhibition: cells, Histone H3 Ser10 phosphorylation, western blotting and immunofluorescence, compounds 1 μM
Sequence of Aurora B (Q96GD4 whole entry): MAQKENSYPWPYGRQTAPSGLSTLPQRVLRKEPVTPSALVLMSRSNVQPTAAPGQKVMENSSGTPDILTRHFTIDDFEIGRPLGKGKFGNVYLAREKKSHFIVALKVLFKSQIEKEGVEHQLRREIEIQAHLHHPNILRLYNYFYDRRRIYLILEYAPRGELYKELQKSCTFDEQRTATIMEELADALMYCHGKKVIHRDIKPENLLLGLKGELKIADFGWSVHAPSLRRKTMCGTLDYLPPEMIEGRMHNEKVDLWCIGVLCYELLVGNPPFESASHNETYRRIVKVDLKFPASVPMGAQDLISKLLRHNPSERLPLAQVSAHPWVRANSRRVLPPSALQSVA
Description: Actin is used as control of quantity. Cells were incubated overnight in the presence of either C1, or C2 or CH21 or C14 or DMSO(C: control). All compounds were tested at 1 μM. Proteins were detected by western blotting.
Cells were incubated with the different molecules and Aurora B inhibition is estimated by western blotting (WB) and immuno fluorescent experiments. Histone H3 phosphorylated on Ser10 is used as a marker of Aurora B kinase activity and actin as an internal control. Each WB signal is compared to the control in the absence of compound. The efficiency estimated by WB is indicated by +++: very efficient inhibition to −: no inhibition. Immunofluorescent labelling of a mitotic cell by Histone H3 illustrates Aurora B kinase activity. However immunofluorescence is less sensitive than WB. Active molecules are underlined by a square and the intensity of the line indicates the efficiency of inhibition.
FIG. 10A: Immunofluorescence with phospho-Ser10-Histone H3 antibodies. Either the percentage of positive phospho-Ser10-Histone H3 is indicated or a representative mitosis shown. […] Immunofluorescent assays were realized with a specific phospho-antibody and mitotic U2OS cells are recognized by their DNA content stained with Hoechst. On the right, a representative cell or the percentage of H3-S10-P labelled mitosis.
(§3) FIG. 10B: Immunoblotting analysis of histone H3 phosphorylation. U2OS cells were incubated overnight with Nocodazole (50 nM) in the presence of either DMSO (Co) or Compounds (1 μM). Cells were then collected and lyzed. Identical amounts of the lyzed cell samples were run on 18% acrylamide gel containing SDS.
as §3, with “FIGS. 11B and 11C:” for “FIG. 10B:”, “U2OS and HeLa” for “U2OS”
Cells were incubated with the different molecules and Aurora B inhibition is estimated by western blotting and immunofluorescent experiments. Histone H3 phosphorylated on Ser10 is used as a marker of Aurora B kinase activity and actin as an internal control. Results are represented in FIGS. 4 and 10 and Table 3.
Cells were treated by compounds, harvested and lyzed in 9M urea then supplemented with Laemmli sample buffer. Cell extracts were subjected to SDS-PAGE and transferred to nitrocellulose filter (GE Healthcare). After blocking with 5% non-fat milk in PBS for at least 1 hour, the membranes were incubated with the primary antibodies. The following antibodies were used: phospho-Histone H3 Ser10 (1:2000, Upstate Biotechnology), anti LAST1 (Cell signalling), anti Aurora B (epitomics) and anti alpha-tubulin (Sigma) Anti-rabbit horseradish peroxidase (1:5000, GE Healthcare) was used as secondary antibodies. Bands were visualized by ECL technique (Amersham Bioscience).
Cells were seeded on glass coverslips and treated by compounds (1 μM) overnight. After treatment, cells were fixed in 4% formaldhehyde at 37° C. for 15 minutes, then permeabilized for 5 minutes with Triton X-100 in PBS.

[5] = test system: 121 kinases; test: Kinase profiling on a set of 121 kinases; type: biochemical; settings: for Known Targets (%): kinases presenting the highest inhibitions, lists not exhaustive
Description: FIG. 1A: The potential inhibition of C14 was tested against 121 kinases, in vitro, at the concentration of 1 μM. The kinase activities, in the presence of C14, are represented, each kinase being represented by a vertical bar. Only 18 kinases have less than 30% activity in the presence of C14.
The specificity of C14 was tested, in vitro, against 121 kinases representative of the kinome. Assays run in duplicate, at the concentration of 1 μM, were performed by MRC (Dundee, UK). Results are represented in FIG. 1. The main targets are highlighted in FIG. 1B.
as §2

[6] = test system: U373; test: Cell viability test (CellTiter 96 AQueous One Solution); type: cell-based; settings: Homo sapiens, U373 MG; U373 (Glioblastoma); 72 h of treatment; read-out: IC50 (cell line viability)
Description: (§4) H358, H322 (lung cancer cells), U373 (glioblastomes) and HeLa ([…]) were grown in DMEM (1.5 g/L glucose) whereas HL60 (human myeloid cell line) cells were in RPMI 1640. U2OS (a human osteosarcoma cell line) cells were cultured in McCoy's Medium 5 A and liver cells (SK Hep 1) in DMEM (4 g/L glucose, (Gibco-Invitrogen). Media (Gibco-Invitrogen), were supplemented with 10% heat-inactivated foetal bovine serum (Gibco-Invitrogen), L-glutamine (2 mM), penicillin (100 UI/ml) and streptomycin (100 μg/ml).
(§5) Cell proliferation assays were conducted in 96 well culture plates. Assays were run in triplicate. Cell viability was estimated upon 72 h of treatment with varying concentrations of compound by addition of CellTiter 96Queous one Solution Reagent (Promega) directly to culture wells under conditions defined by the manufacturer.

[7] = test system: H358 cells; test: as above; type: cell-based; settings: for IC50: Homo sapiens, NCI-H358, H358 (Lung), 72 h of treatment, read-out: IC50 (cell line viability)
Description: as §4, §5

[8] = test system: HL60; test: as above; type: cell-based; settings: Homo sapiens, HL-60; HL60 (Leukemia); 72 h of treatment; read-out: IC50 (cell line viability)
Description: as §4, §5

[9] = test system: U2OS; test: as above; type: cell-based; settings: Homo sapiens; U2OS (Osteosarcoma); 72 h of treatment; read-out: IC50 (cell line viability) (converted)
Description: as §4, §5

Sequence of RSK2 (P51812 whole entry): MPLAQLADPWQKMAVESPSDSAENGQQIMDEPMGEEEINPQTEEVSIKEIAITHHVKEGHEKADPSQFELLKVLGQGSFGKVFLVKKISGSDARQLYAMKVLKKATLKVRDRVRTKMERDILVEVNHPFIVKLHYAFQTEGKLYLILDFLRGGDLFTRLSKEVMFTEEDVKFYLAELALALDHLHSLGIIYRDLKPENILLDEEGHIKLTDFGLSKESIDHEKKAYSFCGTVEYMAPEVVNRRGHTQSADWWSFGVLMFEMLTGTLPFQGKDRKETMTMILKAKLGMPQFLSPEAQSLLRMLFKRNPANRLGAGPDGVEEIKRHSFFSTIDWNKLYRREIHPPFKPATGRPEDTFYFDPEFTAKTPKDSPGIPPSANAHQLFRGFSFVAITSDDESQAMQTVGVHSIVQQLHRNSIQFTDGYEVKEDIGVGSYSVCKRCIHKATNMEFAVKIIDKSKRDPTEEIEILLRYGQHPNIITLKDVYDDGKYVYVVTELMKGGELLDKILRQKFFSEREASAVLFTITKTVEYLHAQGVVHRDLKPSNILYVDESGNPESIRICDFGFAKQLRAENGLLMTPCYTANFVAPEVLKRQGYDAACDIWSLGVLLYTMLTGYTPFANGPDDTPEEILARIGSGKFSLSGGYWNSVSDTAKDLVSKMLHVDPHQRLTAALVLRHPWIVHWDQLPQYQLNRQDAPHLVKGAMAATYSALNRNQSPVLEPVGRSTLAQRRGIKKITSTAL

| Compound | effect on kinase activity (FIG. 2, in words) [1] | effect on kinase activity (FIG. 2, in words) [2] | effect on kinase activity (FIG. 2, in words) [3] | Aurora B inhibition in cellulo (Histone H3 phosphorylation, in words) [4] | Aurora B inhibition [4] | Known Targets (%) [5] | IC50 [6] [nM] | IC50 [7] [nM] | IC50 [8] [nM] | IC50 [9] [nM] | number of kinases with less than 30% activity in the presence of compound ([5]; 121 kinases tested in vitro at 1 μM) | death of cycling cells ([7]; 0.5 μM, cycling H358 cells) |
| --- | --- | --- | --- | --- | --- | --- | --- | --- | --- | --- | --- | --- |
| Cc1cncc2c1[nH]c1ccc3cc(OCCN(C)C)ccc3c12 [CH21, 3-(2-N,N-dimethylaminoethyloxy)-8-methyl-7H-benzo[e]pyrido(4,3-b)indole] | None of these kinases were significantly affected | None of these kinases were significantly affected | None of these kinases were significantly affected | no effect | − | NUAK1 TrkA Tak1 Gck Flt3 | 360 | 450 | > 2000 | 1100 |  |  |
| CCc1c[nH]c(=O)c2c1[nH]c1ccc3cc(OC)ccc3c12 [Compound C1, reference compound] | highly inhibited | highly inhibited | highly inhibited | inhibit efficiently | +++ | Aurora A Aurora B Chk2 FLT3 Melk | > 1000 | 145 | 350 | > 1000 |  |  |
| Cc1c[nH]c(=O)c2c1[nH]c1ccc3cc(OCCN(C)C)ccc3c12 [Compound C14, 3-(2-N,N-Dimethylaminoethoxy)-8-methyl-7H,10H-benzo[e]pyrido(4,3-b)indol-11-one] | not affected | not affected | not affected | inhibit efficiently | +++ | Aurora B NUAK1 TrkA Tak1 Gck Chk1 Chk2 | 3100 | 470 | > 2000 | 720 | 18 | more than 50% |
